Results as given in patent US12275731B2, “Azaindole inhibitors of wild-type and mutant forms of LRRK2” (DANA-FARBER CANCER INSTITUTE, INC., priority 2018, dated 2025).

Columns and labels:
Test in all cases: KinomeScan profiling
Assay type in all cases: binding
TRPM6 = TRPM6 (Homo sapiens, UniProt Q9BX84); details: TRPM6, 1 μM; read-out: % control
Outline: (§1)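 Normalised RLU (% control; DMSO 100%, positive control 0%) was measured for compounds dosed at 1 μM over 468 kinases, active cut-off <35%.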

PAK2 = PAK2 (Homo sapiens, UniProt Q13177); details: PAK2, 1 μM; read-out: % control
Outline: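 1 μM cpd in DMSO; 468-kinase panel; readout RLU. % ctrl = (cpd − pos ctrl)/(neg ctrl − pos ctrl) ×100. Pos ctrl = 0%, DMSO = 100%. Hit cut-off <35%.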

SRPK2 = target: T1, SRPK2 (Homo sapiens, UniProt P78362); details: SRPK2, 1 μM; read-out: % control
T1 construct: purchased KinomeScan® (panel service)
Outline: as §1

CSNK2A2 = CSNK2A2 (Homo sapiens, UniProt P19784); details: CSNK2A2, 1 μM; read-out: % control
Outline: as §1

PCTK1 = PCTK1 (Homo sapiens, UniProt Q00536); details: PCTK1, 1 μM; read-out: % control
Outline: as §1

[1] = target: T2, RSK2(Kin.Dom.2-C-terminal) (Homo sapiens, UniProt P51812); details: read-out: % control
T2 construct: RSK2(Kin.Dom.2-C-terminal)
Outline: as §1

AMPK-alpha2 = target: T3, AMPK-alpha2 (Homo sapiens, UniProt P54646); details: AMPK-alpha2, 1 μM; read-out: % control
T3 construct: purchased KinomeScan®
Outline: as §1

RET = RET (Homo sapiens, UniProt P07949); details: read-out: % control
Outline: as §1

AAK1 = target: T4, AAK1 (Homo sapiens, UniProt Q2M2I8); details: AAK1, 1 μM; read-out: % control
T4 construct: purchased KinomeScan®
Outline: as §1

ALK = target: T5, ALK (Homo sapiens, UniProt Q9UM73); details: read-out: % control
T5 construct: purchased KinomeScan®
Outline: as §1

NLK = target: T6, NLK (Homo sapiens, UniProt Q9UBE8); details: read-out: % control
T6 sequence (Q9UBE8 1-527): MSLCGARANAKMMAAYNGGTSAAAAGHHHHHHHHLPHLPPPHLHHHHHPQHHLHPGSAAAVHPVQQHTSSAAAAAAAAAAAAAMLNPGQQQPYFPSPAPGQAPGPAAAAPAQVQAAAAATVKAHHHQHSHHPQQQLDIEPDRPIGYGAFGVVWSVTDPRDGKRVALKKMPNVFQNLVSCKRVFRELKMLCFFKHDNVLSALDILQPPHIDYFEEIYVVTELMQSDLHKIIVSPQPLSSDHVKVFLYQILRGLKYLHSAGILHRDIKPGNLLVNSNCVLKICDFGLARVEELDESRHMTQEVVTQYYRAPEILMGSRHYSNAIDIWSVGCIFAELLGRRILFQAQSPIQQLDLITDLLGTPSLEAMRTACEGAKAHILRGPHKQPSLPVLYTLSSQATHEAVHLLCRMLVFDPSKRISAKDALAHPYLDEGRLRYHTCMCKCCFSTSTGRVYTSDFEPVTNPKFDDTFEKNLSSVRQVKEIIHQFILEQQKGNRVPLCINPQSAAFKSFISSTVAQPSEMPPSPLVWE
Outline: as §1

BMPR1A = target: T7, BMPR1A (Homo sapiens, UniProt P36894); details: read-out: % control
T7 construct: purchased KinomeScan®
Outline: as §1

SGK = target: T8, SGK (Homo sapiens, UniProt O00141); details: read-out: % control
T8 construct: purchased KinomeScan® (panel service)
T8 sequence (O00141 1-431): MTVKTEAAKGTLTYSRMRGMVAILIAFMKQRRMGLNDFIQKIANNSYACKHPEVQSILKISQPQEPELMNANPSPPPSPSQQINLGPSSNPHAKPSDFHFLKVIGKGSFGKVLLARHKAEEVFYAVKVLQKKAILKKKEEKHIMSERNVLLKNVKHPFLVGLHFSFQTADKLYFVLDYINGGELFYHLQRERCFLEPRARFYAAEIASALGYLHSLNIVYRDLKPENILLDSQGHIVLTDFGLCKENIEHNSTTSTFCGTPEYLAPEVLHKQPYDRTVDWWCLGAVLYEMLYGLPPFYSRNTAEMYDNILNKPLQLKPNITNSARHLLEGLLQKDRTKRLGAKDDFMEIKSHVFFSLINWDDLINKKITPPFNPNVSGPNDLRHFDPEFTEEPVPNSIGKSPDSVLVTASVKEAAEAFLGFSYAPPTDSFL
Outline: as §1

[2] = target: T9, RSK3(Kin.Dom.2-C-terminal) (Homo sapiens, UniProt Q15349); details: read-out: % control
T9 construct: RSK3(Kin.Dom.2-C-terminal)
Outline: as §1

PCTK1, sequence (Q00536 whole entry): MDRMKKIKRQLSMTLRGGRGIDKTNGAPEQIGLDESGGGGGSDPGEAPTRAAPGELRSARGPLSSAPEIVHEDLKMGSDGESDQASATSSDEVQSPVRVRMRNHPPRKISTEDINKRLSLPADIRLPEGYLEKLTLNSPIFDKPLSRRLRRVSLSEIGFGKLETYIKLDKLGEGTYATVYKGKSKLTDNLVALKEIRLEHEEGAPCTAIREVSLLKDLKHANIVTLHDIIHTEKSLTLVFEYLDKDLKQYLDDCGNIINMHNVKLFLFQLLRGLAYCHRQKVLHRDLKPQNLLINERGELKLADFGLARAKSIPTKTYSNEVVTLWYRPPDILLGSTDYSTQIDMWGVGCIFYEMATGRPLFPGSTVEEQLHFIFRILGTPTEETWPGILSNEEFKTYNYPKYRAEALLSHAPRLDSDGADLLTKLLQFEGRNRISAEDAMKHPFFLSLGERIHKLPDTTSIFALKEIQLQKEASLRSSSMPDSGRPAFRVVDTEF
T4 sequence (Q2M2I8 whole entry): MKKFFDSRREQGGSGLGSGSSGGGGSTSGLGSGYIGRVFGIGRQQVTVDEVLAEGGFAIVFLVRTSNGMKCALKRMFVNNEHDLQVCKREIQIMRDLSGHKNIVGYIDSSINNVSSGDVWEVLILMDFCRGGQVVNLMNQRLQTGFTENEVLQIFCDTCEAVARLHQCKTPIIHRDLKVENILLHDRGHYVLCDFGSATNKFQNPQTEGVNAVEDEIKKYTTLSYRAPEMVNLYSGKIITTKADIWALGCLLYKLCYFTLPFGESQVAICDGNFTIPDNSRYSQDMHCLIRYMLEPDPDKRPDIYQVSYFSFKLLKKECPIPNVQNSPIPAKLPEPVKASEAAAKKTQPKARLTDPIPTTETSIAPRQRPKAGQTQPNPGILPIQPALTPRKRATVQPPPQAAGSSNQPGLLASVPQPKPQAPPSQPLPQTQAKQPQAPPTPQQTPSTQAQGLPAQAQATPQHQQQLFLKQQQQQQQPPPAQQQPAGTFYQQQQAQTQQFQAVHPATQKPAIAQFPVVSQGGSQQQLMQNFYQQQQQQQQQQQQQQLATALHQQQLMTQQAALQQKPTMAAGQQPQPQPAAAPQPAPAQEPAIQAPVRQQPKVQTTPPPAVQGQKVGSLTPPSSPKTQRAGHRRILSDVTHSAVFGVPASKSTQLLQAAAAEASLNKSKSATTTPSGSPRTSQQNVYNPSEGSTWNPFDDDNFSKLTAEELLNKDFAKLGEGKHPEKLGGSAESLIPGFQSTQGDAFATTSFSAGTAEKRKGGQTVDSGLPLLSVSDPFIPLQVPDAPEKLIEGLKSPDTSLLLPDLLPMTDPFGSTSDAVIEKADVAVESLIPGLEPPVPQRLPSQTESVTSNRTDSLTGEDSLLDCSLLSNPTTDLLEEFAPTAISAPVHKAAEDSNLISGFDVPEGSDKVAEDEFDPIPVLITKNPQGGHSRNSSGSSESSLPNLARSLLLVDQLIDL
TRPM6, sequence (Q9BX84 whole entry): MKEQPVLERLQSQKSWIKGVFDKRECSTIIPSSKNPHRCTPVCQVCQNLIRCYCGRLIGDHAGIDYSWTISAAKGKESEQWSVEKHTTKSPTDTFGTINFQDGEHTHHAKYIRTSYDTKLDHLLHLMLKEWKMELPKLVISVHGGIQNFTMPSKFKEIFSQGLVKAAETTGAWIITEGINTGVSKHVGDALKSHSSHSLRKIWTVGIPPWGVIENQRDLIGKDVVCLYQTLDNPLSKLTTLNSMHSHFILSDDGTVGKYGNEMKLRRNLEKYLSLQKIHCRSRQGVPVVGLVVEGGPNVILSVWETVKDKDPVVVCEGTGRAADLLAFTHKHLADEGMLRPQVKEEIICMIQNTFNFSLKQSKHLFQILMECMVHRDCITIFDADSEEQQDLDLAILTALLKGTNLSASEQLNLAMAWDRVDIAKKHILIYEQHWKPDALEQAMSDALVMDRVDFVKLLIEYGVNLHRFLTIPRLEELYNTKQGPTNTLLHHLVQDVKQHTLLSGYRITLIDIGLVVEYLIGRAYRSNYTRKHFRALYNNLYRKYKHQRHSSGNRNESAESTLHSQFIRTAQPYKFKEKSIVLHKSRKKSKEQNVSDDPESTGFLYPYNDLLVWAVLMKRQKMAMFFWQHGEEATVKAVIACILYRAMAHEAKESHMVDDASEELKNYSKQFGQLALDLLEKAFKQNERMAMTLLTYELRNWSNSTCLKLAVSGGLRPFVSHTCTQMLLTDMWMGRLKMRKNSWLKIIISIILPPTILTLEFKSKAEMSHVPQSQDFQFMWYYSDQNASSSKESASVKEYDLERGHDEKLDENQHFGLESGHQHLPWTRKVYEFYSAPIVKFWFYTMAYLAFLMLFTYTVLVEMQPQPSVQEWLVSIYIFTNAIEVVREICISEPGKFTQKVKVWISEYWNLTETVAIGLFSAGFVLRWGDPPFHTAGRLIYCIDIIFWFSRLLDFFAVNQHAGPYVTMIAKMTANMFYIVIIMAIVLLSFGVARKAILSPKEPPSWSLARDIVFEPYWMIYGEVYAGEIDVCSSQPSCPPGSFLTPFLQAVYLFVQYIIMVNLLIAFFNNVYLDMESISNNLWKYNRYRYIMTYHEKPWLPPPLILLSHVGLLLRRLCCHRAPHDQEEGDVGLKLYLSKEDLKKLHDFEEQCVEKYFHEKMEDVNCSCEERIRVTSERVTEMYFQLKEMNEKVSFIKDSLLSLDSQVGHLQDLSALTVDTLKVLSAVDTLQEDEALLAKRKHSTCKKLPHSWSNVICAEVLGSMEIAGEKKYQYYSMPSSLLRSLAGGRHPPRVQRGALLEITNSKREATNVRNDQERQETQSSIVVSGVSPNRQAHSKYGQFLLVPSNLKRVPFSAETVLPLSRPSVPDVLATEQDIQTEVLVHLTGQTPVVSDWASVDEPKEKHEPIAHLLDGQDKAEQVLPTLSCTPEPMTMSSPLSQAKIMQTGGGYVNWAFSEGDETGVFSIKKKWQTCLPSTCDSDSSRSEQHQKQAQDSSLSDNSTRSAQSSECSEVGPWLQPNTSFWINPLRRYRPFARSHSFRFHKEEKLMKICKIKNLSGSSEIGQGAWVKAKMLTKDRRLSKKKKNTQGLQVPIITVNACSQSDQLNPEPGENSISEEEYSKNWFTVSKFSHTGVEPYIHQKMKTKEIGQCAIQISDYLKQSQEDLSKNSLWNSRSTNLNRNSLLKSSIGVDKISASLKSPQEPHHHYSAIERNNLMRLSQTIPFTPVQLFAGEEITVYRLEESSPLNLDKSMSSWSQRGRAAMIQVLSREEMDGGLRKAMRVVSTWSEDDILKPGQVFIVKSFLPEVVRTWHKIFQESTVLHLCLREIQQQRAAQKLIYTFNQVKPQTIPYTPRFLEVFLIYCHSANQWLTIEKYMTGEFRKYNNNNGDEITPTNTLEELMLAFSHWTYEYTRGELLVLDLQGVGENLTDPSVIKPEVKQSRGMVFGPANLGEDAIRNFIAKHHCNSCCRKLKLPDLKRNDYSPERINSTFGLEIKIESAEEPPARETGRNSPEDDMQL
T7 sequence (P36894 24-532): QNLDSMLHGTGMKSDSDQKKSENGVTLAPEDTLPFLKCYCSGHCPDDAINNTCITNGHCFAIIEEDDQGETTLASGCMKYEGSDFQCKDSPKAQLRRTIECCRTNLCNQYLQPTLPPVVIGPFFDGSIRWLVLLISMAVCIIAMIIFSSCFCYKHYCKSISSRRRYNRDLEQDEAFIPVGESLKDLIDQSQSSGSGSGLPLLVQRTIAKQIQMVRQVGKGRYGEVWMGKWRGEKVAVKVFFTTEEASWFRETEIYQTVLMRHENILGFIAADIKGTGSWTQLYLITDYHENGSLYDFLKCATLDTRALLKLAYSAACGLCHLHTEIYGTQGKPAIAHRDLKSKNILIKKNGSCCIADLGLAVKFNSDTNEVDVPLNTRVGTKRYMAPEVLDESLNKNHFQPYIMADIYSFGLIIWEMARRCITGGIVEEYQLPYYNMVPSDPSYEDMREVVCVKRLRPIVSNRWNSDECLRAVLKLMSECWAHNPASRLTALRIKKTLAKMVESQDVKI
CSNK2A2, sequence (P19784 whole entry): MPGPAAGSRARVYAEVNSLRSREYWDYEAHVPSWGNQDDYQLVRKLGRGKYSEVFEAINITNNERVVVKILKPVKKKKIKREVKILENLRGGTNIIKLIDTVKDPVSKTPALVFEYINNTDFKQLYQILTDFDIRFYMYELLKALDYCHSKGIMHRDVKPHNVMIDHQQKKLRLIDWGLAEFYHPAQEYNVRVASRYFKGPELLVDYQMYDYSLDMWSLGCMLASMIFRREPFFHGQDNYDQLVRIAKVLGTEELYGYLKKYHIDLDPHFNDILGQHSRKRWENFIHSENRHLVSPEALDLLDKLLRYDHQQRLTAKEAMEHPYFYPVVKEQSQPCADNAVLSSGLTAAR
PAK2, sequence (Q13177 whole entry): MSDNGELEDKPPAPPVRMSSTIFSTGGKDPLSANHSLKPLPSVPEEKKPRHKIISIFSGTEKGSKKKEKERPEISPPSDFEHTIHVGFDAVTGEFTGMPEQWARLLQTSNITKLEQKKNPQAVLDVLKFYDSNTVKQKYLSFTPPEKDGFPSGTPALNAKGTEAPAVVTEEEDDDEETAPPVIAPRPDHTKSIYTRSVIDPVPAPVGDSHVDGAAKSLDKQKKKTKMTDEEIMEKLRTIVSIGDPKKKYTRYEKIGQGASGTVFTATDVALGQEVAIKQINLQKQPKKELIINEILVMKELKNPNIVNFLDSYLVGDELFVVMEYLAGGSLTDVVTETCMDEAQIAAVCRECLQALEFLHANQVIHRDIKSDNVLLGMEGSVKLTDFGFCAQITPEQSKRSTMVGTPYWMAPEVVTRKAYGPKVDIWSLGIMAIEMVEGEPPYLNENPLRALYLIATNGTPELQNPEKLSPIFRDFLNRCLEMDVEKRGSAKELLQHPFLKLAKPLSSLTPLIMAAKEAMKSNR

SMILES | remaining binding at 1 µM (TRPM6) [%] | remaining binding at 1 µM (PAK2) [%] | remaining binding at 1 µM (SRPK2) [%] | remaining binding at 1 µM (CSNK2A2) [%] | remaining binding at 1 µM (PCTK1) [%] | remaining binding at 1 µM [1] [%] | remaining binding at 1 µM (AMPK-alpha2) [%] | remaining binding at 1 µM (RET) [%] | remaining binding at 1 µM (AAK1) [%] | remaining binding at 1 µM (ALK) [%] | remaining binding at 1 µM (NLK) [%] | remaining binding at 1 µM (BMPR1A) [%] | remaining binding at 1 µM (SGK) [%] | remaining binding at 1 µM [2] [%]
CNc1c(-c2cnn([C@H]3CCN(C(C)=O)C[C@@H]3F)c2)cnc2[nH]cc(Cl)c12 [Compound 77, 1-((3S,4S)-4-(4-(3-chloro-4-(methylamino)-1H-pyrrolo[2,3-b]pyridin-5-yl)-1H-pyrazol-1-yl)-3-fluoropiperidin-1-yl)ethan-1-one] | 89 | 100 | 12 | 90 | 85 | 98 | 99 | 27 | 36 | 40 | 95 | 93 | 17 | 100
CNc1c(-c2ccc(C(=O)N3CCC(N4CCOCC4)CC3)cc2)cnc2[nH]cc(Cl)c12 [Compound 96, (4-(3-chloro-4-(methylamino)-1H-pyrrolo[2,3-b]pyridin-5-yl)phenyl)(4-morpholinopiperidin-1-yl)methanone] | 82 | 96 | 16 | 92 | 86 | 97 | 66 | 80 | 23 | 46 | 100 | 66 | 7.3 | 78
O=C(c1ccc(-c2cnc3[nH]cc(Cl)c3c2NC2CCCC2)cc1)N1CCC(N2CCOCC2)CC1 [Compound 101, (4-(3-chloro-4-(cyclopentylamino)-1H-pyrrolo[2,3-b]pyridin-5-yl)phenyl)(4-morpholinopiperidin-1-yl)methanone] | 100 | 80 | 60 | 100 | 100 | 83 | 55 | 85 | 67 | 75 | 88 | 87 | 86 | 77
